Measured values from patent US4970214A, “Quinoline substituted oxomethyl or thioxomethyl glycine derivatives and aldose reductase inhibition therewith” (Nippon Shinyaku Co., Ltd., priority 1986, dated 1990).

How the values were obtained:
Male mice of ddY strain = experiment: Acute toxicity, oral, rate of death and general symptoms; type: in vivo; conditions: for rate of death: two weeks
From the text: Male mice of ddY strain (5 weeks of age) were used (one group comprised 4 to 5 mice).

[1] = system: amounts of inositol and galactitol in the sciatic nerve; experiment: Inositol and galactitol in sciatic nerve of rats fed 20% galactose diet for 4 days; type: in vivo, rat (Sprague-Dawley); conditions: 9 a.m. and 5 p.m., rat sciatic nerve
Description: (C) Non-fasted male rats of Sprague-Dawley strain (5 rats in one group) of 150-220 g body weight were used. To all groups was administered 20% galactose diet (a mixture of galactose and F-2 which is a product of Funahashi Farm) and fed for 4 days. The test compound was given orally at 9 a.m. and 5 p.m. from the first to the fourth day. On the fifth day, the rats were sacrificed, sciatic nerve was taken out, and the amounts of inositol and galactitol in the sciatic nerve were measured by the method as given before.

aldose reductase [2] = molecular target: T1, aldose reductase (Bos taurus, UniProt P16116); experiment: Activity of aldose reductase, in vitro; type: biochemical; conditions: aldose reductase from crystal eye of cow
T1 construct: The aldose reductase used was that obtained from crystal eye of cow; from tissue; host or cells: cow eye lens
From the text: The aldose reductase used was that obtained from crystal eye of cow and the measurement was done in vitro.

[3] = system: Accumulation of Galactitol in sciatic nerve; experiment: Accumulation of galactitol in sciatic nerve after single oral galactose; type: in vivo, rat (Sprague-Dawley); conditions: 4 hours prior to 5 g/kg galactose, rats sacrificed after 3 hours
Description: (B) Male rats of Sprague-Dawley strain (body weight: 150 to 200 g) were fasted overnight and used in the test (one group comprised 4 rats). To all groups were given 5 g/kg of galactose orally, then the rats were sacrificed after 3 hours, and sciatic nerve was taken out and weighed. The content of galactitol in the sciatic nerve was measured by high performance liquid chromatography in accordance with a method by Jean-Marie Dethy (Anal. Biochem. 143, 119, 1984). The test compound was given orally 4 hours prior to the administration of galactose. To the control group was given 0.5% methylcellulose.

aldose reductase [4] = experiment: Aldose reductase inhibiting action (statement in words, test not described)

CN(CC(=O)OCCO)C(=S)c1cc(-c2ccccc2F)nc2cc(F)ccc12 [Compound 3]
rate of death (Male mice of ddY strain; 1000 mg/kg oral): 0/4 | Inhibition Rate (%) ([1]; 10 mg/kg oral): 26% | Inhibition Rate (%) ([1]; 20 mg/kg oral): 37% | IC50 (aldose reductase [2]): > 8.7 µM | Inhibition rate (%) against Accumulation of Galactitol in sciatic nerve ([3]; 20 mg/kg oral): 32.68% | Inhibition rate (%) against Accumulation of Galactitol in sciatic nerve ([3]; 50 mg/kg oral): 70.78%

O=C(O)CNC(=O)c1cc(-c2ccccc2)nc2ccccc12 [[(2-phenylquinolin-4-yl)carbonyl]glycine]
aldose reductase inhibiting action (aldose reductase [4]): does not exhibit the aldose reductase inhibiting action

CN(CC(=O)OCCO)C(=S)c1cc(-c2ccccc2)nc2ccccc12 [Compound 1, β-Hydroxyethyl ester of N-[(2-phenylquinolin-4-yl)thioxomethyl]-N-methylglycine]
rate of death (Male mice of ddY strain; 1000 mg/kg oral): 0/4 | case of death (Male mice of ddY strain; 3 g/kg oral): no case of death | Inhibition Rate (%) ([1]; 10 mg/kg oral): 45% | Inhibition Rate (%) ([1]; 20 mg/kg oral): 67% | IC50 (aldose reductase [2]): > 8.7 µM | Inhibition rate (%) against Accumulation of Galactitol in sciatic nerve ([3]; 20 mg/kg oral): 54.88% | Inhibition rate (%) against Accumulation of Galactitol in sciatic nerve ([3]; 50 mg/kg oral): 84.57% | Inhibition rate (%) against Accumulation of Galactitol in sciatic nerve ([3]; 100 mg/kg oral): 92.57%

COc1ccc2c(C(=S)N(C)CC(=O)O)cccc2c1C(F)(F)F [Tolrestat, reference compound]
rate of death (Male mice of ddY strain; 500 mg/kg oral): 2/4 | rate of death (Male mice of ddY strain; 1000 mg/kg oral): 3/4 | Inhibition Rate (%) ([1]; 5 mg/kg oral): 34% | Inhibition Rate (%) ([1]; 10 mg/kg oral): 86% | Inhibition Rate (%) ([1]; 20 mg/kg oral): 96% | Inhibition rate (%) against Accumulation of Galactitol in sciatic nerve ([3]; 10 mg/kg oral): 21.01% | Inhibition rate (%) against Accumulation of Galactitol in sciatic nerve ([3]; 20 mg/kg oral): 28.26% | Inhibition rate (%) against Accumulation of Galactitol in sciatic nerve ([3]; 50 mg/kg oral): 68.00% | Inhibition rate (%) against Accumulation of Galactitol in sciatic nerve ([3]; 100 mg/kg oral): 95.43%

Cc1cc(C(=S)N(C)CC(=O)OCCO)c2cccc(C(F)(F)F)c2n1 [Compound 2, β-Hydroxyethyl ester of N-[(2-methyl-8-trifluoromethylquinolin-4-yl)thioxomethyl]-N-methylglycine]
Inhibition Rate (%) ([1]; 5 mg/kg oral): 27% | Inhibition Rate (%) ([1]; 10 mg/kg oral): 46% | Inhibition Rate (%) ([1]; 20 mg/kg oral): 77% | IC50 (aldose reductase [2]): > 8.7 µM | Inhibition rate (%) against Accumulation of Galactitol in sciatic nerve ([3]; 10 mg/kg oral): 45.37% | Inhibition rate (%) against Accumulation of Galactitol in sciatic nerve ([3]; 20 mg/kg oral): 91.28% | Inhibition rate (%) against Accumulation of Galactitol in sciatic nerve ([3]; 50 mg/kg oral): 98.19%

CCc1cc(C(=S)N(C)CC(=O)OCCO)c2cccc(C(F)(F)F)c2n1 [Compound 5, β-Hydroxyethyl ester of N-[(2-ethyl-8-trifluoromethylquinolin-4-yl)thioxomethyl]-N-methylglycine]
rate of death (Male mice of ddY strain; 1000 mg/kg oral): 0/4 | Inhibition rate (%) against Accumulation of Galactitol in sciatic nerve ([3]; 20 mg/kg oral): 13.98% | Inhibition rate (%) against Accumulation of Galactitol in sciatic nerve ([3]; 50 mg/kg oral): 79.66%
